test system: myeloid leukemia patient primary cells Pat.1; assay: cell viability (% survival relative to DMSO control); higher = less cytotoxic; conditions: 100 nM; 72 h
How it was run: (§1)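 Thawed, Ficoll-purified mononuclear cells from AML or CML patients in RPMI 1640 with 10% FBS were seeded at 10,000 cells/well on 384-well plates pre-printed with 70 compounds at five tenfold concentrations, 1–10,000 nM, in duplicate, for 72 h. Viability was read by CellTiter-Glo and normalised to DMSO and 10 μM proteasome-inhibitor wells. Where given, area under the curve came from four-parameter log-logistic fits (drc, PharmacoGx R packages).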

Point of comparison: `CN(CCOc1ccc(Cc2sc(O)nc2O)cc1)c1ccccn1` [Rosiglitazone], cell viability 92.5%. Against it:
- CN(Cc1cnc2nc(N)nc(N)c2n1)c1ccc(C(=O)N[C@@H](CCC(=O)O)C(=O)O)cc1 [Methotrexate] — lower, 87.7%

same assay, conditions: 1000 nM; 72 h

Point of comparison: `CCN(CC)C(=S)SSC(=S)N(CC)CC` [Disulfiram], cell viability 1.11%. Against it:
- O=c1cc(N2CCOCC2)oc2c(-c3ccccc3)cccc12 — higher, 63.6%
- O=C1C(SCCO)=C(SCCO)C(=O)c2ccccc21 — lower, < 0%
- Cn1cc(-c2ccncc2)c(-c2ccc(OCc3ccc4ccccc4n3)cc2)n1 — higher, 73%
- O=C(O)CC[N+](=O)[O-] [3-nitropropionic acid] — higher, 88.4%
- O=C(/C=C/c1ccc(O)c(O)c1)OCCc1ccccc1 [Caffeic acid phenethyl ester] — higher, 63.3%
- c1cc(-c2cnn3cc(-c4ccc(OCCN5CCCCC5)cc4)cnc23)ccn1 [Dorsomorphin] — higher, 65.8%
- CN(Cc1cnc2nc(N)nc(N)c2n1)c1ccc(C(=O)N[C@@H](CCC(=O)O)C(=O)O)cc1 [Methotrexate] — higher, 72.5%
- CN(CCOc1ccc(Cc2sc(O)nc2O)cc1)c1ccccn1 [Rosiglitazone] — higher, 95.9%

same assay, conditions: 10000 nM; 72 h

Point of comparison: `CN(CCOc1ccc(Cc2sc(O)nc2O)cc1)c1ccccn1` [Rosiglitazone], cell viability 84.4%. Against it:
- O=c1cc(N2CCOCC2)oc2c(-c3ccccc3)cccc12 — lower, 27.5%
- O=C1C(SCCO)=C(SCCO)C(=O)c2ccccc21 — lower, < 0%
- Cn1cc(-c2ccncc2)c(-c2ccc(OCc3ccc4ccccc4n3)cc2)n1 — lower, 73.6%
- O=C(O)CC[N+](=O)[O-] [3-nitropropionic acid] — lower, 68.5%
- O=C(/C=C/c1ccc(O)c(O)c1)OCCc1ccccc1 [Caffeic acid phenethyl ester] — lower, 44%
- CCN(CC)C(=S)SSC(=S)N(CC)CC [Disulfiram] — lower, 0.116%
- c1cc(-c2cnn3cc(-c4ccc(OCCN5CCCCC5)cc4)cnc23)ccn1 [Dorsomorphin] — lower, 27.8%
- CN(Cc1cnc2nc(N)nc(N)c2n1)c1ccc(C(=O)N[C@@H](CCC(=O)O)C(=O)O)cc1 [Methotrexate] — higher, 92.6%

test system: myeloid leukemia patient primary cells Pat.2; assay: as above; conditions: 1 nM; 72 h
How it was run: as §1

Point of comparison: `c1cc(-c2cnn3cc(-c4ccc(OCCN5CCCCC5)cc4)cnc23)ccn1` [Dorsomorphin], cell viability 95.8%. Against it:
- O=c1cc(N2CCOCC2)oc2c(-c3ccccc3)cccc12 — lower, 92.1%
- O=C1C(SCCO)=C(SCCO)C(=O)c2ccccc21 — lower, 93.1%
- Cn1cc(-c2ccncc2)c(-c2ccc(OCc3ccc4ccccc4n3)cc2)n1 — lower, 94.2%
- O=C(O)CC[N+](=O)[O-] [3-nitropropionic acid] — lower, 91.3%
- O=C(/C=C/c1ccc(O)c(O)c1)OCCc1ccccc1 [Caffeic acid phenethyl ester] — lower, 95.4%
- CCN(CC)C(=S)SSC(=S)N(CC)CC [Disulfiram] — lower, 95.6%
- CN(Cc1cnc2nc(N)nc(N)c2n1)c1ccc(C(=O)N[C@@H](CCC(=O)O)C(=O)O)cc1 [Methotrexate] — higher, 98.8%
- CN(CCOc1ccc(Cc2sc(O)nc2O)cc1)c1ccccn1 [Rosiglitazone] — lower, 87.1%

same assay, conditions: 10 nM; 72 h

Point of comparison: `O=c1cc(N2CCOCC2)oc2c(-c3ccccc3)cccc12`, cell viability 87.9%. Against it:
- O=C1C(SCCO)=C(SCCO)C(=O)c2ccccc21 — higher, > 100%
- Cn1cc(-c2ccncc2)c(-c2ccc(OCc3ccc4ccccc4n3)cc2)n1 — higher, 94.8%
- O=C(O)CC[N+](=O)[O-] [3-nitropropionic acid] — higher, 98.1%
- O=C(/C=C/c1ccc(O)c(O)c1)OCCc1ccccc1 [Caffeic acid phenethyl ester] — higher, 98.6%
- CCN(CC)C(=S)SSC(=S)N(CC)CC [Disulfiram] — higher, 93.9%
- c1cc(-c2cnn3cc(-c4ccc(OCCN5CCCCC5)cc4)cnc23)ccn1 [Dorsomorphin] — higher, 99.8%
- CN(Cc1cnc2nc(N)nc(N)c2n1)c1ccc(C(=O)N[C@@H](CCC(=O)O)C(=O)O)cc1 [Methotrexate] — higher, 96.8%
- CN(CCOc1ccc(Cc2sc(O)nc2O)cc1)c1ccccn1 [Rosiglitazone] — lower, 78.9%

same assay, conditions: 100 nM; 72 h

Point of comparison: `c1cc(-c2cnn3cc(-c4ccc(OCCN5CCCCC5)cc4)cnc23)ccn1` [Dorsomorphin], cell viability 92.5%. Against it:
- O=c1cc(N2CCOCC2)oc2c(-c3ccccc3)cccc12 — higher, 99.7%
- O=C1C(SCCO)=C(SCCO)C(=O)c2ccccc21 — higher, 97.1%
- Cn1cc(-c2ccncc2)c(-c2ccc(OCc3ccc4ccccc4n3)cc2)n1 — higher, 98.5%
- O=C(O)CC[N+](=O)[O-] [3-nitropropionic acid] — higher, > 100%
- O=C(/C=C/c1ccc(O)c(O)c1)OCCc1ccccc1 [Caffeic acid phenethyl ester] — higher, > 100%
- CCN(CC)C(=S)SSC(=S)N(CC)CC [Disulfiram] — lower, 39.1%
- CN(Cc1cnc2nc(N)nc(N)c2n1)c1ccc(C(=O)N[C@@H](CCC(=O)O)C(=O)O)cc1 [Methotrexate] — higher, 98.1%
- CN(CCOc1ccc(Cc2sc(O)nc2O)cc1)c1ccccn1 [Rosiglitazone] — higher, 97.8%

same assay, conditions: 1000 nM; 72 h

Point of comparison: `O=C1C(SCCO)=C(SCCO)C(=O)c2ccccc21`, cell viability 55.8%. Against it:
- O=c1cc(N2CCOCC2)oc2c(-c3ccccc3)cccc12 — higher, 91.1%
- Cn1cc(-c2ccncc2)c(-c2ccc(OCc3ccc4ccccc4n3)cc2)n1 — higher, 77.3%
- O=C(O)CC[N+](=O)[O-] [3-nitropropionic acid] — higher, 92.7%
- O=C(/C=C/c1ccc(O)c(O)c1)OCCc1ccccc1 [Caffeic acid phenethyl ester] — higher, 89.3%
- CCN(CC)C(=S)SSC(=S)N(CC)CC [Disulfiram] — lower, 0.978%
- c1cc(-c2cnn3cc(-c4ccc(OCCN5CCCCC5)cc4)cnc23)ccn1 [Dorsomorphin] — higher, > 100%
- CN(Cc1cnc2nc(N)nc(N)c2n1)c1ccc(C(=O)N[C@@H](CCC(=O)O)C(=O)O)cc1 [Methotrexate] — higher, 75.3%
- CN(CCOc1ccc(Cc2sc(O)nc2O)cc1)c1ccccn1 [Rosiglitazone] — higher, 98.3%

same assay, conditions: 10000 nM; 72 h

Point of comparison: `O=c1cc(N2CCOCC2)oc2c(-c3ccccc3)cccc12`, cell viability 67.2%. Against it:
- O=C1C(SCCO)=C(SCCO)C(=O)c2ccccc21 — lower, 0.14%
- Cn1cc(-c2ccncc2)c(-c2ccc(OCc3ccc4ccccc4n3)cc2)n1 — higher, 80.2%

From the supplement of paper PMC8671470
